Assay results published in patent US20200323833A1, “HYDROPHOBIC ACID ADDITION SALTS” (Theracaine LLC, priority 2017, published 2020).
Counter-ions that a name gives are not always drawn.

Experiments:
[1] = Pharmacokinetics of dry powder administered subcutaneously via dorsal incision (Example 5); assay type: in vivo, Sprague Dawley rats; conditions: dry powder 230, via dorsal incision, bupivacaine salt 149 vs lidocaine salt 226 mg/kg
Description: Terminal collections were performed via vena cava.
The test articles were drug compositions designated as Test Articles A and B, which were administered as a single subcutaneous dose via dorsal incision to female CD (Sprague Dawley) rats.
(§1) Ten (10) female, jugular vein catheterized (JVC) CD rats initially were assigned to two dose groups consisting of five animals per group.
(§2) Each test article was provided as a powder in an individual vial.

[2] = test system: female CD (Sprague Dawley) rats; conditions: rat, in vivo
Description: Clinical observations were performed daily.
as §1, §2

[3] = test system: female Sprague-Dawley rats; conditions: rat, in vivo, sc
Description: (§3) Clinical observations were performed daily. […] Other characteristics observed included appearance of skin and fur, appearance of eyes and mucous membranes, urine and fecal output, and changes in locomotor behavior. The times of observation were approximately the same each day, and the date of each observation was recorded.
The vehicle was a hyaluronic acid vehicle. The animals received a single subcutaneous dose of the test article or vehicle delivered to the dorsal area of the animals.
In addition, dose sites were exposed for gross evaluation of residual test articles and local response to the injected materials.

[4] = test system: female Sprague Dawley (CD) rats; conditions: rat, in vivo, sc
Description: as §3
Animals were euthanized at the end of the study via carbon dioxide inhalation (CO2) followed by thoracotomy. Gross necropsy of the dose sites were performed and they were collected for histopathology. Photographs were taken for any observation of tissue or reaction to treatment. Carcasses were discarded without further examination.
Twenty (20) female, jugular vein catheterized (JVC) Sprague Dawley (CD) rats initially were assigned to four dose groups consisting of eight (Test Articles A and B) or two (Test Articles B and C) animals per group. The animals received a single subcutaneous dose of the test article delivered to the dorsal subcutaneum of the animals via a dorsal skin incision.
Test articles were provided as a powder in individual vials (Test Articles A and B), or as a solution (Test Articles C and D). On the day of testing, each animal's dose was individually calculated, weighed or measured, and recorded. […]

| SMILES | Cmax compared to the lidocaine particles [1] | duration of release compared to the lidocaine particles ([1]; listed as bupivacaine particles) | duration of release compared to the lidocaine particles ([1]; listed as bupivaciane particles) | tolerability of single subcutaneous dose administered through a dorsal incision [2] | clinical observations [3] | vascularization surrounding the incision sites on the subcutaneous skin layers [4] |
| --- | --- | --- | --- | --- | --- | --- |
| CCCCN1CCCCC1C(=O)Nc1c(C)cccc1C (stereo not drawn) [Test Article B, Bupivacaine tridecafluorohexane-sulfonate salt 230] | lower | longer | significantly longer |  |  |  |
| CCN(CC)CC(=O)Nc1c(C)cccc1C.O=S(=O)(O)C(F)(F)C(F)(F)C(F)(F)C(F)(F)C(F)(F)C(F)(F)C(F)(F)C(F)(F)F [Test Article B] |  |  |  | tolerated | slightly dehydrated and hypoactive | slight to moderate |
